Literature values, collected in publication PMC3079564 (Chemical biology & drug design, 2011).

Columns and labels:
[1] = system: recombinant HIV-1 carrying HIV-1YU2 envelope glycoproteins on Cf2Th-CCR5 cells lacking CD4
[2] = system: gp120 from the YU2 strain

## CC1(C)CC(NC(=O)C(=O)Nc2ccc(Cl)cc2)CC(C)(C)N1 [NBD-556]
[1]
  enhancement of viral infectivity in CD4 negative cells: three orders of magnitude
[2]; 25 °C
  -TΔS of binding to gp120: 17.1 kcal/mol
  ΔH of binding to gp120: -24.5 kcal/mol
[2]; NBD-556
  measured heat capacity change on binding to gp120: -1.0 kcal/(K × mol)
